The experiment has as its system skin wounds reproducing ulceration. Kind of experiment: cicatrization of punch skin wounds (pseudo-ulcer) treated daily with metformin ointment. Format: in vivo, Zucker fa/fa rats. As to the method:
The efficacy of metformin was tested in vivo on skin wounds reproducing ulceration. The pseudo-ulcer was produced on 14-week-old Zucker fa/fa rats by loss of matter of circular shape 8 mm in diameter made by a “punch”, down to the muscle layer. […] The speed of the cicatrization was evaluated by determining the area of the wounds with a video camera coupled to a computer equipped with image analysis software.
Furthermore, metformin at a concentration of 1% by weight relative to the lipophilic phase also appears to exert an effect on neovascularizaton.
The results of the microscopic analysis of histological sections of the wounds are collated in Table 1 below.

Take `CN(C)C(=N)N=C(N)N` [metformin]: the “collagen density in granulation tissue” value (FIG. 3, D4) is given as “increase in the collagen density”. Moreover, the “cicatrization (area of the wounds by image analysis)” value (daily treatment, ointment at different metformin concentrations) is “significant improvement in cicatrization”. Besides, the “epidermization compared with untreated control animals” value (different metformin concentrations) is given as “acceleration of epidermization”. Besides, the “closure of the treated wounds vs untreated control wounds” value (four metformin concentrations, FIG. 2) was “closure of the treated wounds is faster than of the untreated control wounds”. Also, the “neovascularization (density of blood capillaries on the edges of the wound)” value (metformin 1%, D5, treated vs control rats) is “greater density of blood capillaries on the edges of the wound”. Also, where the note is “ointment with metformin at 0.02%, 0.1%, and 2%”, the “cicatrizing action, dose-response study” value is listed as “cicatrizing action for all the concentrations tested”. Under “rat, in vivo”, the “speed of maturation of granulation tissue” value was “significantly increases the speed of maturation of granulation tissue”.

For the origin of these results see US7199159B2, “Use of biguanide derivatives for making a medicine having a wound healing effect” (Centre National de la Recherche Scientifique (C.N.R.S.), priority 2000, dated 2007).
